This experiment has as its system NanoLuc-PEST expressing L. mexicana axenic amastigotes. As to the kind of experiment: microbe, parasite or virus in culture. Format: cell-based. Particulars: for Relative Bioluminescence (%) / viability at 2 µM / viability at 10 µM: 72 hours, relative to DMSO only control, n = 4; for viability at 2 µM / viability at 10 µM: Leishmania mexicana, read-out: Relative Bioluminescence (%); for EC50: hit compounds from the axenic amastigote screen, S3 Table, read-out: EC50, Axenic Amastigotes.

In general, EC50 refers to the concentration needed to bring the measured effect to its halfway point.

`NC(N)=Nc1ccc(-c2ccc(-c3ccc(N=C(N)N)cc3Cl)o2)c(Cl)c1` [MMV688179]: the “Relative Bioluminescence (%)” value by setting is: (2 µM compound) 105.96%; (10 µM compound) 54.50%.

Regarding `CN1CCC[C@@H]1CCO[C@](C)(c1ccccc1)c1ccc(Cl)cc1` [MMV637229, Clemastine, reference compound], under “2 µM compound”, the viability at 2 µM was determined as 47.3%. Besides, the viability at 10 µM (10 µM compound) is 11.2%.

Turning to `c1ccc(Oc2ccc(-c3cc(CN4CCOCC4)[nH]n3)cc2)cc1` [MMV676161], the “Relative Bioluminescence (%)” value by setting is: (2 µM compound) 108.65%; (10 µM compound) 116.07%.

Consider `Cc1ccc2[nH]c(C3CCCNC3)c(-c3ccncc3)c2c1` (stereo not drawn) [MMV024311], for which the “Relative Bioluminescence (%)” value (2 µM compound) stood at 109.56% and the “Relative Bioluminescence (%)” value (10 µM compound) is 88.36%.

`O=C(NC1CC1)c1ccc(N2CCOc3ccc(Cl)cc32)s1` [MMV020537]: the “Relative Bioluminescence (%)” value runs as follows: (2 µM compound) 116.22%; (10 µM compound) 146.04%.

`Cc1cc(C)n2nc(C(=O)Nc3cc(C(F)(F)F)ccc3N3CCOCC3)nc2n1` [MMV019087]: the “Relative Bioluminescence (%)” value runs as follows: (2 µM compound) 89.61%; (10 µM compound) 89.32%.

On to `N#Cc1ccc(-c2ccc(OCC(N)=O)cc2)cc1` [MMV053220], for which the “Relative Bioluminescence (%)” value is, setting by setting: (2 µM compound) 105.30%; (10 µM compound) 82.56%.

Consider `O=C1N(Cc2cc3ccccc3s2)CC2CN(Cc3ccccc3)CCN12` (stereo not drawn) [MMV084603], for which the “Relative Bioluminescence (%)” value stood at 70.21% (2 µM compound) and 61.10% (10 µM compound).

In the case of `COc1cc(NC(C)CCCN)c2ncccc2c1` (stereo not drawn) [MMV000023, Primaquine, reference compound], the viability at 2 µM (2 µM compound) came out at 55%. The viability at 10 µM (10 µM compound) stood at 76.8%.

Consider `CNc1nnc(Sc2cnn(-c3ccccc3)c(=O)c2Cl)s1` [MMV688763], for which the EC50 amounted to 380 nM. Further, the “Relative Bioluminescence (%)” value (2 µM compound) is -1.63%. Moreover, the “Relative Bioluminescence (%)” value (10 µM compound) is -0.71%.

For the molecule `Cc1cc(C)n(-c2ccc(NC(=O)C3CCN(Cc4cnc(C)s4)CC3)cc2)n1` [MMV007625], the “Relative Bioluminescence (%)” value runs as follows: (2 µM compound) 85.10%; (10 µM compound) 76.47%.

As to `CO[C@@H]1CN(c2ccc(C#CC3(O)CN4CCC3CC4)c(Cc3ccccc3)n2)C[C@H]1O` (stereo partly drawn) [MMV688415], the “Relative Bioluminescence (%)” value is, setting by setting: (2 µM compound) 63.04%; (10 µM compound) 31.88%.

With `COc1ccc2nc(C)cc(OCC(=O)Nc3ccccc3OC)c2c1` [MMV687188], the “Relative Bioluminescence (%)” value reads like this: (2 µM compound) 75.17%; (10 µM compound) 98.10%.

Take `COc1ccc(N(CCc2cccc(C)n2)C(=O)C2CCCCC2)cc1` [MMV675996]: the “Relative Bioluminescence (%)” value is, setting by setting: (2 µM compound) 63.13%; (10 µM compound) 25.83%.

For `CS(=O)(=O)c1ccc(C(=O)N(CC2CCCO2)c2nc3ccccc3s2)cc1[N+](=O)[O-]` (stereo not drawn) [MMV688761], the “Relative Bioluminescence (%)” value by setting is: (2 µM compound) 39.52%; (10 µM compound) -1.44%.

In the case of `CO[C@@H](C(=O)N1Cc2[nH]nc(NC(=O)c3ccc(N4CCN(C)CC4)cc3)c2C1)c1ccccc1` [MMV676600], the “Relative Bioluminescence (%)” value reads like this: (2 µM compound) 110.66%; (10 µM compound) 114.36%.

For the molecule `O=C(Nc1nc(-c2ccccn2)cs1)C1CC1c1ccccc1F` (stereo not drawn) [MMV1028806], the “Relative Bioluminescence (%)” value (2 µM compound) is recorded as 58.01% and the “Relative Bioluminescence (%)” value (10 µM compound) is -0.60%.

Consider `O=C(NC1CC1)c1ccc(CSCc2ccccc2Cl)o1` [MMV007803], for which the “Relative Bioluminescence (%)” value runs as follows: (2 µM compound) 113.68%; (10 µM compound) 107.95%.

For `CN(C(=O)c1cc2c(-c3cncnc3)cccc2[nH]1)c1ccccc1` [MMV024443], the “Relative Bioluminescence (%)” value (2 µM compound) is on record as 64.75% and the “Relative Bioluminescence (%)” value (10 µM compound) is 32.60%.

As for `O=C(NCCc1ccn(-c2ccccc2)n1)C1CCCCC1` [MMV688795], the “Relative Bioluminescence (%)” value (2 µM compound) stood at 79.12% and the “Relative Bioluminescence (%)” value (10 µM compound) came to 86.70%.

For `O=C1O[C@@H](CO)CN1c1cc(F)c(C2=CCN(Cc3ccccc3)CC2)c(F)c1` [MMV687729], the “Relative Bioluminescence (%)” value (2 µM compound) came out at 76.47% and the “Relative Bioluminescence (%)” value (10 µM compound) was determined as 62.67%.

Consider `COc1ccc(-c2cnc3ccc(N4CCCC4)nn23)cc1OC` [MMV023985], for which the “Relative Bioluminescence (%)” value (2 µM compound) is on record as 57.95% and the “Relative Bioluminescence (%)” value (10 µM compound) amounted to 46.63%.

As to `N=C(N)c1ccc(-c2cc(-c3ccccc3)on2)cc1` [MMV688514], the “Relative Bioluminescence (%)” value runs as follows: (2 µM compound) 40.80%; (10 µM compound) 34.58%.

With `CCOc1ccc(-c2nc(CNCCc3ccc(F)cc3)cs2)cc1` [MMV688938], the “Relative Bioluminescence (%)” value runs as follows: (2 µM compound) 63.80%; (10 µM compound) 76.80%.

For the molecule `FC(F)(F)c1ccc(N(c2cccnc2)C2CCN(c3ccc(C(F)(F)F)cn3)CC2)cc1` [MMV689243], the “Relative Bioluminescence (%)” value (2 µM compound) is 34.53% and the “Relative Bioluminescence (%)” value (10 µM compound) was found to be 8.50%.

On to `c1ccc(Oc2ccc(-c3cc(C4CCOCC4)[nH]n3)cc2)cc1` [MMV687762], for which the “Relative Bioluminescence (%)” value by setting is: (2 µM compound) 41.49%; (10 µM compound) 31.40%.

For `COC(=O)c1ccc(F)cc1NS(=O)(=O)c1cccc(-c2cnn(Cc3ccccc3)c2)c1` [MMV688350], the “Relative Bioluminescence (%)” value by setting is: (2 µM compound) 101.75%; (10 µM compound) 91.24%.

On to `COC(=O)c1c(NC(=O)c2c(F)c(F)c(F)c(F)c2F)sc2c1CCCCC2` [MMV461553], for which the “Relative Bioluminescence (%)” value is recorded as 48.03% (2 µM compound) and -0.44% (10 µM compound).

For `O=C(C1CCN(c2nnnn2-c2ccccc2)CC1)N1CCc2ccccc2C1` [MMV009135], the “Relative Bioluminescence (%)” value is given as 83.57% (2 µM compound) and 73.86% (10 µM compound).

For the molecule `FC(F)(F)c1cc(NCCc2ccccc2)nc(-c2ccccn2)n1` [MMV659010], the “Relative Bioluminescence (%)” value is 95.95% (2 µM compound) and 88.01% (10 µM compound).

Turning to `OC[C@H]1O[C@@H](n2c3ccc(Cl)cc3c3c(-c4cc5ccccc5o4)ncnc32)C(O)[C@H]1O` (stereo partly drawn) [MMV688921], the “Relative Bioluminescence (%)” value worked out at 84.76% (2 µM compound) and 105.56% (10 µM compound).

As to `COc1cccc2c(C)nc(N=C(N)N)nc12` [MMV000907], the “Relative Bioluminescence (%)” value was 95.69% (2 µM compound) and 78.62% (10 µM compound).

Consider `O=C(c1ccc(NCCO)cc1)C1C[C@H]1c1ccc(Cl)cc1` (stereo partly drawn) [MMV676877], for which the “Relative Bioluminescence (%)” value was determined as 100.77% (2 µM compound) and 116.30% (10 µM compound).

With `O=C1[C@@H](Oc2ccccc2)[C@@H](c2ccc(Cl)cc2)N1CCn1cnc2c(NCc3ccccc3)ncnc21` [MMV688352], the “Relative Bioluminescence (%)” value reads like this: (2 µM compound) 66.17%; (10 µM compound) 8.52%.

On to `O=C(Nc1ccccc1-c1nc2c(C(=O)O)cccc2o1)c1ccccc1` [MMV676162], for which the EC50 amounted to 960 nM. Moreover, the “Relative Bioluminescence (%)” value (2 µM compound) came to 7.36%. Also, the “Relative Bioluminescence (%)” value (10 µM compound) was -0.97%.

Take `CC(C)(C)c1cc(C(=O)Nc2cccnc2)cc(C(=O)Nc2cccnc2)c1` [MMV020982]: the “Relative Bioluminescence (%)” value was 109.38% (2 µM compound) and 93.07% (10 µM compound).

Consider `FC(F)(F)c1cnc(Sc2nnc(-c3ccncc3)o2)c(Cl)c1` [MMV011765], for which the “Relative Bioluminescence (%)” value runs as follows: (2 µM compound) 84.80%; (10 µM compound) 45.24%.

As to `Nc1ccc2ncnc(Nc3ccc(OCc4cccc(F)c4)c(Cl)c3)c2c1` [MMV688273], the “Relative Bioluminescence (%)” value (2 µM compound) is 63.86% and the “Relative Bioluminescence (%)” value (10 µM compound) came out at 0.09%.

With `Cc1cc(NC(=O)c2ccc(Oc3ccc(Cl)cc3O)o2)no1` [MMV688955], the “Relative Bioluminescence (%)” value turned out to be 95.96% (2 µM compound) and 96.76% (10 µM compound).

For the molecule `NS(=O)(=O)c1cncc(-c2ccc3nccc(-c4cn[nH]c4)c3n2)c1` [MMV024101], the “Relative Bioluminescence (%)” value (2 µM compound) is listed as 98.92% and the “Relative Bioluminescence (%)” value (10 µM compound) was determined as 49.51%.

On to `O=C(NCCc1ccccc1)c1cc(-c2cccnc2)cnc1NCC1CC1` [MMV026490], for which the “Relative Bioluminescence (%)” value is listed as 92.31% (2 µM compound) and 60.31% (10 µM compound).

Consider `Nc1ncc(-c2cn[nH]c2)cc1-c1nc2cc(Cl)cnc2[nH]1` [MMV023370], for which the “Relative Bioluminescence (%)” value (2 µM compound) worked out at 62.35% and the “Relative Bioluminescence (%)” value (10 µM compound) was determined as 54.43%.

As for `Cc1nn(C)cc1C(C)Nc1nncc(-c2ccc(C(F)(F)F)cc2)n1` (stereo not drawn) [MMV019993], the “Relative Bioluminescence (%)” value came to 96.83% (2 µM compound) and 70.73% (10 µM compound).

For the molecule `COCC(C)NC(=O)CSc1ncnc2sc(-c3ccccc3)cc12` (stereo not drawn) [MMV676536], the “Relative Bioluminescence (%)” value is reported as 84.93% (2 µM compound) and 103.25% (10 µM compound).

For the molecule `O=C(c1ccc(F)cc1)N(CCNc1ccccc1)c1ccccc1` [MMV676204], the “Relative Bioluminescence (%)” value (2 µM compound) worked out at 116.49% and the “Relative Bioluminescence (%)” value (10 µM compound) is 99.37%.

With `COc1ccc(OC(C)C(=O)Nc2ccc(Cl)cc2C)cc1` (stereo not drawn) [MMV202458], the “Relative Bioluminescence (%)” value by setting is: (2 µM compound) 83.71%; (10 µM compound) 79.97%.

`N=C(N)c1ccc(OCCCCCOc2ccc(C(=N)N)cc2)cc1` [MMV000062, Pentamidine, reference compound]: the viability at 2 µM (2 µM compound) came out at 72.2%. Moreover, where the note is “10 µM compound”, the viability at 10 µM amounted to 96.8%.

For the molecule `Clc1ccc(CN2CCN(C3=NCCN3)CC2)cc1Cl` [MMV689060], the “Relative Bioluminescence (%)” value (2 µM compound) is 99.56% and the “Relative Bioluminescence (%)” value (10 µM compound) is given as 112.63%.

With `CS(=O)(=O)N1CCC(Cn2nc(Cc3cccc4ccccc34)c3c(N)ncnc32)CC1` [MMV676050], the “Relative Bioluminescence (%)” value (2 µM compound) is reported as 74.33% and the “Relative Bioluminescence (%)” value (10 µM compound) turned out to be 42.99%.

Consider `CC[C@@H]([C@H](C)O)n1ncn(-c2ccc(N3CCN(c4ccc(OC[C@@H]5CO[C@@](Cn6cncn6)(c6ccc(F)cc6F)C5)cc4)CC3)cc2)c1=O` [MMV688774, Posaconazole, reference compound], for which the viability at 2 µM (2 µM compound) is 31.3%. Moreover, the viability at 10 µM (10 µM compound) is -1.25%.

(Values after publication PMC6057649, “Development of NanoLuc-PEST expressing Leishmania mexicana as a new drug discovery tool for axenic- and intramacrophage-based assays” (PLoS Neglected Tropical Diseases, 2018).)
